The data set is described as follows: Human HepG2 cell viability assay in 384 well format. The class given is toxicity, cell-based. On the set-up: dose 125 nL, time 70.5 hour; concentration not given beside the values. The note with it: HepG2 cells, read-out: Inhibition.

Turning to `CCOc1no[n+]([O-])c1-c1ccccc1`, the cytotoxicity at 70.5 h was -3.07%.

Turning to `Cc1c(Cl)cccc1NC(=O)c1nc[nH]n1`, the cytotoxicity at 70.5 h turned out to be 19.3%.

As for `COCCC(=O)N1CCC(c2ncncc2-c2ccnc(N)c2)C1` (centres undefined), the cytotoxicity at 70.5 h is -3.28%.

With `Cc1ccc(S(=O)(=O)N2CCC(c3n[nH]cc3C(=O)N(C)C)CC2)cc1`, the cytotoxicity at 70.5 h was found to be 8.18%.

Take `CN1CCC(c2nccnc2Nc2cnccn2)CC1`: the cytotoxicity at 70.5 h is -0.843%.

For the molecule `Cc1noc(C)c1CCC(=O)N1CCOCC1CCc1cnccn1` (centres undefined), the cytotoxicity at 70.5 h worked out at 14%.

As to `Cc1cc(CN2CCc3nc(N4CCOCC4)nc(O)c3CC2)c(C)s1`, the cytotoxicity at 70.5 h is -0.651%.

On to `Cc1cc(C)nc(N2CCC(C(=O)Nc3ccc(C(C)C)cc3)CC2)n1`, for which the cytotoxicity at 70.5 h was -2.09%.

Consider `Cc1cc(N(C)C)nc(C2(C)CCCNC2)n1` (centres undefined), for which the cytotoxicity at 70.5 h was determined as 18.9%.

On to `Nc1nccnc1CC1CCCN(Cc2ccnc3ccccc23)C1` (centres undefined), for which the cytotoxicity at 70.5 h is 27.7%.

Take `COCC(=O)N1CCC(O)(CN2CCN(c3ccccc3)CC2)C1` (centres undefined): the cytotoxicity at 70.5 h is -1.6%.

As for `c1c[nH]c(CN2CCCC(Cc3ccc(NC4CCCC4)nn3)C2)n1` (centres undefined), the cytotoxicity at 70.5 h was 7.73%.

Turning to `CC(C)c1nccn1-c1cncc(C2CCCN2Cc2cccnc2)n1` (centres undefined), the cytotoxicity at 70.5 h was -1.69%.

For `Cc1ccc(CN2CCc3nc(C(C)C)nc(O)c3CC2)s1`, the cytotoxicity at 70.5 h was -4.74%.

Turning to `CN(C)C(=O)c1c[nH]nc1C1CCN(S(=O)(=O)c2ccccc2)CC1`, the cytotoxicity at 70.5 h was -1.91%.

In the case of `NC(=O)c1cn[nH]c1C1CCCN1C(=O)c1cnccn1` (centres undefined), the cytotoxicity at 70.5 h was -10.1%.

On to `Cc1c(Br)cccc1NC(=O)N(C)CCO`, for which the cytotoxicity at 70.5 h is -14.7%.

For the molecule `CCS(=O)(=O)CCCN1CCSCC1c1ccc(Cl)cc1` (centres undefined), the cytotoxicity at 70.5 h is -13.2%.

Consider `O=C(COc1cc(Cl)cc(Cl)c1)NCc1nncn1C1CC1`, for which the cytotoxicity at 70.5 h is -8.34%.

For `COc1ccc(OC)c(S(=O)(=O)NC(=O)C(C)OC)c1` (centres undefined), the cytotoxicity at 70.5 h is -13.3%.

For the molecule `Cc1ccccc1S(=O)(=O)Cc1nsc(N(C)C)n1`, the cytotoxicity at 70.5 h was 0.131%.

`Cc1ccc(S(=O)(=O)Cc2nsc(N(C)C)n2)c(C)c1`: the cytotoxicity at 70.5 h was -6.24%.

On to `Cc1ccnc2c1NC(=O)CN2C(=O)CCc1ccccc1`, for which the cytotoxicity at 70.5 h was -13.4%.

`Cc1ccnc2c1NC(=O)CN2C(=O)CCc1cccs1`: the cytotoxicity at 70.5 h was -5.29%.

Regarding `COc1ccc(S(=O)(=O)NC(=O)C(C)OC)c(OC)c1` (centres undefined), the cytotoxicity at 70.5 h is -2.74%.

On to `Cc1cc(CNC(=O)c2cc(NC(=O)C(C)C)ccc2Cl)no1`, for which the cytotoxicity at 70.5 h is 13.5%.

`Cn1cccc1CNCC1CCCn2cc(C(C)(C)C)nc21` (centres undefined): the cytotoxicity at 70.5 h was 5.68%.

With `CCN(C)S(=O)(=O)N1CCC(C(O)c2ccc(F)cc2)CC1` (centres undefined), the cytotoxicity at 70.5 h is -2.3%.

Consider `CC(CO)NS(=O)(=O)c1cccc(C(C)C)c1` (centres undefined), for which the cytotoxicity at 70.5 h is -9%.

Turning to `CCN(CC(=O)NC(C)(C)C)Cc1cccc2c1OCCO2`, the cytotoxicity at 70.5 h is -11.6%.

For `CC(C)C(C(=O)N(C)C)c1cccc(Cl)c1` (centres undefined), the cytotoxicity at 70.5 h is -11%.

Take `CCCc1noc(C(C)N2CC(n3cccn3)C2)n1` (centres undefined): the cytotoxicity at 70.5 h stood at 6.9%.

For the molecule `Cc1ccn(Cc2nc(C(C)OCC(C)C)no2)c(=O)c1` (centres undefined), the cytotoxicity at 70.5 h was found to be 3.64%.

In the case of `Cc1ccnc(NC(=O)c2c(C)oc(C)c2C)c1`, the cytotoxicity at 70.5 h worked out at 9.9%.

Consider `CC(C)(NC(=O)NCc1cccc(Br)c1)C(=O)O`, for which the cytotoxicity at 70.5 h is -9.51%.

Regarding `COc1ccc(OCCN(C)S(=O)(=O)N2CCOCC2)cc1`, the cytotoxicity at 70.5 h was -6.12%.

As for `CC(C(=O)N1CCOCC1)S(=O)(=O)Cc1nc(C(C)(C)C)no1` (centres undefined), the cytotoxicity at 70.5 h is -9.65%.

For the molecule `Cc1ccc(OCCN(C)S(=O)(=O)N2CCOCC2)cc1`, the cytotoxicity at 70.5 h is -0.648%.

Turning to `O=S(=O)(CCCn1cncn1)Cc1cccc(F)c1`, the cytotoxicity at 70.5 h was -9.13%.

Turning to `CC(C(=O)N1CCCC1)S(=O)(=O)Cc1nc(C(C)(C)C)no1` (centres undefined), the cytotoxicity at 70.5 h is -8.31%.

Consider `Cc1cc(N(C)C)nc(N(C)Cc2csc(C)n2)n1`, for which the cytotoxicity at 70.5 h is -7.95%.

In the case of `Cc1cnn(CC2CN(c3ncnc4c3CCC4)CCO2)c1` (centres undefined), the cytotoxicity at 70.5 h is -1.52%.

As for `CC(NC(N)=O)C(=O)N(C)Cc1cccc(C(F)(F)F)c1` (centres undefined), the cytotoxicity at 70.5 h worked out at 10.7%.

In the case of `O=C(COCC1CC1)Nc1cc(S(=O)(=O)NC2CC2)ccc1F`, the cytotoxicity at 70.5 h is -2.2%.

As for `CSc1ccsc1C(=O)NCCNC(=O)C1CC1`, the cytotoxicity at 70.5 h was -6.91%.

As to `CCC(CC)c1cc(C(=O)N2CCN(C(C#N)C(C)C)CC2)on1` (centres undefined), the cytotoxicity at 70.5 h was -6.08%.

As to `CCC(C)(C)C1CCCN1C(=O)c1coc(S(=O)(=O)NC)c1` (centres undefined), the cytotoxicity at 70.5 h was determined as 6.9%.

Regarding `CN1CCOC(C(=O)Nc2nc(-c3ccc(Cl)cc3)n[nH]2)C1` (centres undefined), the cytotoxicity at 70.5 h was 4.4%.

As for `CC(Cc1ccco1)NS(=O)(=O)N1CCCCC1` (centres undefined), the cytotoxicity at 70.5 h is -6.18%.

With `CC1CCN(S(=O)(=O)NC(C)Cc2ccco2)CC1` (centres undefined), the cytotoxicity at 70.5 h was -4.62%.

For the molecule `CC(C)Cc1nc(CS(=O)(=O)C(C)C(=O)N2CCOCC2)no1` (centres undefined), the cytotoxicity at 70.5 h was -7.75%.

Take `CS(=O)(=O)c1ccc(NC(=O)NC2(c3ccccc3)CCC2)cc1`: the cytotoxicity at 70.5 h was -8.88%.

Take `CCNC(=O)CNC(=O)c1nc(C2CC2)n(-c2ccccc2Cl)n1`: the cytotoxicity at 70.5 h is -2.36%.

For `CS(=O)(=O)NC(c1ccccc1)c1ccc2c(c1)CCCO2` (centres undefined), the cytotoxicity at 70.5 h was -6.34%.

With `COCCN(CCOC)c1ncc(C#N)cc1Cl`, the cytotoxicity at 70.5 h was -15.8%.

On to `Cc1ccc(C2CSCCN2C(=O)NCc2cccnc2)cc1` (centres undefined), for which the cytotoxicity at 70.5 h is -10.1%.

As to `CC(O)CCN(C)C(=O)Nc1cccc(F)c1` (centres undefined), the cytotoxicity at 70.5 h was -8.99%.

With `COc1ccc(-n2cc(CNC(=O)c3cc[nH]n3)nn2)cc1`, the cytotoxicity at 70.5 h is -3.5%.

In the case of `COc1ccc(-n2cc(CNC(=O)c3cscn3)nn2)cc1`, the cytotoxicity at 70.5 h was -17.7%.

As for `Cc1ccc(C2CN(CCS(=O)(=O)C(C)C)CCO2)c(C)c1` (centres undefined), the cytotoxicity at 70.5 h is -1.77%.

As for `CC(O)CCN(C)C(=O)Nc1cc(F)cc(Br)c1` (centres undefined), the cytotoxicity at 70.5 h turned out to be 1.72%.

Turning to `Cc1ccccc1CCCN1CCS(=O)(=O)CC1C` (centres undefined), the cytotoxicity at 70.5 h was -6.59%.

For `CCCc1nc(CN(CCO)Cc2cc(Br)ccc2F)no1`, the cytotoxicity at 70.5 h was -13.1%.

As to `CC(C)N1C(=O)CN(CCOCCO)CC1(C)C`, the cytotoxicity at 70.5 h is -1.37%.

For the molecule `COCCN(Cc1ccco1)c1ncc(C#N)cc1Cl`, the cytotoxicity at 70.5 h was determined as 20.3%.

In the case of `Cc1nc(C)n(CC2CCCN2Cc2cn3ccccc3c2C#N)n1` (centres undefined), the cytotoxicity at 70.5 h is -6.14%.

On to `O=C(CN1CCCC(c2noc(C3CC3)n2)C1)N1CCCC1` (centres undefined), for which the cytotoxicity at 70.5 h was 4.7%.

As for `CC(SCCC(=O)NC(N)=O)c1cccc(F)c1` (centres undefined), the cytotoxicity at 70.5 h stood at 15.9%.

For `CC(c1ccccc1)N(C)C(=O)CN1CCN(c2cnccn2)CC1` (centres undefined), the cytotoxicity at 70.5 h is -16.2%.

Consider `COCc1nc(C(=O)NS(=O)(=O)c2ccc(OC)c(C)c2)cs1`, for which the cytotoxicity at 70.5 h is -13.2%.

As to `CN1CCCC(N(C)C(=O)c2ccc(NC(=O)c3ccc[nH]3)cc2)C1` (centres undefined), the cytotoxicity at 70.5 h is -0.19%.

Regarding `O=C(NCc1nnc2ccccn12)N1CCOC(c2cccs2)C1` (centres undefined), the cytotoxicity at 70.5 h is -8.39%.

`O=C(NCc1nnc2ccccn12)N1CCOC(c2ccsc2)C1` (centres undefined): the cytotoxicity at 70.5 h was -14.6%.

Consider `CC(CNC(=O)CCCc1ccccn1)c1ccsc1` (centres undefined), for which the cytotoxicity at 70.5 h is -12.4%.

With `CCN(CC)C(CNC(=O)CCc1nc(C(C)C)no1)c1ccco1` (centres undefined), the cytotoxicity at 70.5 h is -2.56%.

Consider `N#Cc1ccc(Cl)cc1N1CCC(OC2CCOCC2)CC1`, for which the cytotoxicity at 70.5 h was -3.88%.

In the case of `CC(=O)N1Cc2ccccc2C[C@H]1C(=O)N(C)Cc1ccccn1`, the cytotoxicity at 70.5 h is -14.8%.

With `COc1ccccc1C(N)CC(C)C` (centres undefined), the cytotoxicity at 70.5 h is -8.84%.

With `CCCOc1ccccc1C(N)CC(C)C` (centres undefined), the cytotoxicity at 70.5 h was -9.52%.

In the case of `CN(Cc1c(F)cccc1Cl)C(=O)c1cnn(CCN2CCCCC2)c1`, the cytotoxicity at 70.5 h amounted to 18.7%.

For the molecule `Cc1cc(C2CCCN2C(=O)CN2CCc3ccccc32)on1` (centres undefined), the cytotoxicity at 70.5 h was -0.619%.

Turning to `CN1CCC(C(=O)N2CCC(=Cc3cccc(F)c3)CC2)CC1=O` (centres undefined), the cytotoxicity at 70.5 h was 16.2%.

`CC1COCCN1C(=O)c1cnccn1` (centres undefined): the cytotoxicity at 70.5 h was 7.55%.

In the case of `CCc1ncnc(N2CCOCC2CCO)c1F` (centres undefined), the cytotoxicity at 70.5 h was -2.27%.

On to `Cc1nc(CCCNC(=O)c2c(F)cccc2Br)n[nH]1`, for which the cytotoxicity at 70.5 h worked out at 3.62%.

As for `NC(=O)c1cnn2c1NCC(CNCC1(c3ccccc3)CCCC1)C2` (centres undefined), the cytotoxicity at 70.5 h was 0.136%.

Turning to `Cc1cc(C(=O)Nc2cc(C3CC3)n[nH]2)c2c(C)nn(C)c2n1`, the cytotoxicity at 70.5 h is -12.4%.

Take `c1ccc(C2(NCC3CNc4ccnn4C3)CCC2)cc1` (centres undefined): the cytotoxicity at 70.5 h is -2.65%.

Consider `CC1CCC(NS(=O)(=O)CC(=O)NC(C2CC2)C2CC2)CC1` (centres undefined), for which the cytotoxicity at 70.5 h came to 23.5%.

As to `CC1CCC(NS(=O)(=O)CC(=O)NCC2CCC2)CC1` (centres undefined), the cytotoxicity at 70.5 h was -13.2%.

As to `CC1CCC(NS(=O)(=O)CC(=O)NC2(C(N)=O)CCCC2)CC1` (centres undefined), the cytotoxicity at 70.5 h was -7.07%.

Consider `Cc1cccc(OCCNC(=O)Cn2ccc(C)cc2=O)c1`, for which the cytotoxicity at 70.5 h was -8.95%.

`CC(C)c1ncc2c(n1)CN(c1ncnc3[nH]ccc13)CC2`: the cytotoxicity at 70.5 h was 17.1%.

As for `CC(C)C(NC(=O)Cc1ccccc1)C(=O)NCc1ccc(O)nc1` (centres undefined), the cytotoxicity at 70.5 h is -11.4%.

In the case of `CCS(=O)(=O)CC(C)N(C)C(=O)COc1ccccc1C#N` (centres undefined), the cytotoxicity at 70.5 h is -15.4%.

Regarding `CCC(=O)NC(c1ccc(C)cc1)c1cccc(S(C)(=O)=O)c1` (centres undefined), the cytotoxicity at 70.5 h was -11.9%.

Regarding `CCNC(=O)C1CCCN(c2ccc3ccc(F)cc3n2)C1` (centres undefined), the cytotoxicity at 70.5 h was determined as 0.815%.

Consider `Cc1cccc(OCCCNC(=O)Cn2ccc(C)cc2=O)c1`, for which the cytotoxicity at 70.5 h was -6.82%.

For `O=C(Nc1cc[nH]n1)c1ccc(COCC(F)(F)F)cc1`, the cytotoxicity at 70.5 h was -4%.

In the case of `CC(C)C(C)N(C(=O)Cn1nc2n(c1=O)CCCCC2)C1CC1` (centres undefined), the cytotoxicity at 70.5 h was -11.4%.

As to `Cc1cc(C(=O)NC2CCCOc3cc(Cl)ccc32)n(C)n1` (centres undefined), the cytotoxicity at 70.5 h was -5.69%.

In the case of `O=C(NC1CCCOc2cc(Cl)ccc21)c1ccc(=O)[nH]n1` (centres undefined), the cytotoxicity at 70.5 h is -13.7%.

Turning to `Cc1nc(C)c(S(=O)(=O)NC(=O)c2ccoc2)s1`, the cytotoxicity at 70.5 h is -13%.

For `O=C(Nc1ccccn1)c1cncc(C2CCNCC2)n1`, the cytotoxicity at 70.5 h is -6.06%.
